Earlier results in patent publication US11066478B2, “Intravesical therapy for bladder cancer” (PHOTOCURE ASA, priority 2015, dated 2021).

Columns and labels:
[1] = test system: NMIBC; details: patients with NMIBC
[2] = test system: bladder cancer; details: patients who underwent cystectomy for bladder cancer, HAL-guided TUR prior to cystectomy

SMILES: CCCCCCOC(=O)CCC(=O)CN [HAL, n-hexyl 5-amino-4-oxo-pentanoate]
- rate of residual tumor after TUR ([1]; HAL-guided TUR): reduced the rate of residual tumor
- recurrence free survival (RFS) rates ([1]; HAL-guided TUR compared to white light TUR alone): superior recurrence free survival (RFS) rates
- detection of papillary tumors and flat carcinoma-in-situ (CIS) lesions ([1]; HAL-guided cystoscopy and TUR versus white light alone): increased detection
- 3-year overall survival (OS) ([2]; comparison 56.6%): 65.0%
- 3-year recurrence-free survival (RFS) ([2]; white light TUR alone 58.2%): 69.8%
